Here are results for four molecules from patent US12692254B2, “Benzimidazole inhibitors of PAD enzymes” (BRISTOL-MYERS SQUIBB COMPANY, priority 2018, dated 2026).

The experiment has as its target human PAD4 (hPAD4) (Homo sapiens, UniProt Q9UM07). Kind of experiment: RFMS human PAD4 functional assay (rapid-fire mass spectrum). It counts as biochemical. Particulars: 5 nM hPAD4 enzyme, 250 μM BAEE, 50 μM Calcium; 30 min preincubation, 90 min reaction at 37° C. The essentials: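 PAD4 (10 nM) preincubated 30 min with compound (top final 50 μM), then BAEE substrate added in pH 7.5 HEPES buffer with DTT, 50 μM calcium, TPEN; 90 min at 37° C. After TCA quench, citrulline derivatized with phenyl glyoxal (4 mM final, 30 min, 37° C) and quantified by RapidFire MS against internal standard.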

Molecules are shown by their SMILES.

human PAD4 (hPAD4), sequence (Q9UM07 whole entry): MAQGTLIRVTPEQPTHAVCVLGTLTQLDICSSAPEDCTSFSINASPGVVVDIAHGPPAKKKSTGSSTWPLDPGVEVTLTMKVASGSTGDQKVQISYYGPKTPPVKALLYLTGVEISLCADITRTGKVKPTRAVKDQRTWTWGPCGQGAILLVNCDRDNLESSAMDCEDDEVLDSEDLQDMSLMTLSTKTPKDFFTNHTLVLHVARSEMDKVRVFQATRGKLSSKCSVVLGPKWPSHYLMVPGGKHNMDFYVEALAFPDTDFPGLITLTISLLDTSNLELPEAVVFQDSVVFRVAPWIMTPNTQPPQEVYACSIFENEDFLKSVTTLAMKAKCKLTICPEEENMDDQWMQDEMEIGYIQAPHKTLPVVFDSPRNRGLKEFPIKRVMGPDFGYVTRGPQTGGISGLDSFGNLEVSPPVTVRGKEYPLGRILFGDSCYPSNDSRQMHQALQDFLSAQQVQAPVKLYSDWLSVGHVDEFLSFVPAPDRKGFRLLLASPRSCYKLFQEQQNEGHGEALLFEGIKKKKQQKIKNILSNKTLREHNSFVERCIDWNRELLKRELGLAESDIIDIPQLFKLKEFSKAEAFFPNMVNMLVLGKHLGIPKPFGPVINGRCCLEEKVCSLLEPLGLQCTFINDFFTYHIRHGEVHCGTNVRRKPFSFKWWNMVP

With `Cc1cc(C(=O)N2CC3CCC2[C@@H]3N)cc2nc(-c3cc4ccccc4n3CC3CC3)n(CC3CN(C(=O)c4ccc(C#N)cc4)C3)c12` (stereo partly drawn) [Example 449, 4-[3-({5-[(7R)-7-amino-2-azabicyclo[2.2.1]heptane-2-carbonyl]-2-[1-(cyclopropylmethyl)-1H-indol-2-yl]-7-methyl-1H-1,3-benzodiazol-1-yl}methyl)azetidine-1-carbonyl]benzonitrile], the IC50 came out at 44 nM.
Under `COc1cc(C(=O)N2CC3CCC2[C@@H]3N)cc2nc(-c3cc4cccnc4n3CC3CC3)n(Cc3cnn(-c4cccc(C)n4)c3)c12` (stereo partly drawn) [Example 355, (7R)-2-{2-[1-(cyclopropylmethyl)-1H-pyrrolo[2,3-b]pyridin-2-yl]-7-methoxy-1-{[1-(6-methylpyridin-2-yl)-1H-pyrazol-4-yl]methyl}-1H-1,3-benzodiazole-5-carbonyl}-2-azabicyclo[2.2.1]heptan-7-amine] stands 22 nM; under `COc1cc(C(=O)N2C[C@H](N)C[C@@H](F)C2)cc2nc(-c3cc4ccccc4n3CC3CC3)n(Cc3ccon3)c12` [Example 278, (3R,5R)-1-{2-[1-(cyclopropylmethyl)-1H-indol-2-yl]-7-methoxy-1-[(1,2-oxazol-3-yl)methyl]-1H-1,3-benzodiazole-5-carbonyl)-5-fluoropiperidin-3-amine], 460 nM; under `COc1cc(C(=O)N2CC3CCC2[C@@H]3N)cc2nc(-c3cc4ccccc4n3CC3CC3)n(Cc3cnn(-c4cnccn4)c3)c12` (stereo partly drawn) [Example 358, (7R)-2-{2-[1-(cyclopropylmethyl)-1H-mdol-2-yl]-7-methoxy-1-{[1-(pyrazin-2-yl)-1H-pyrazol-4-yl]methyl}-1H-1,3-benzodiazole-5-carbonyl}-2-azabicyclo[2.2.1]heptan-7-amine], 23 nM.
